Values of other authors, collected in patent US20040247544A1, “Use of dialkyl sulphones in cosmetic nailcare compositions for promoting growth of the nails” (L'OREAL, priority 2002, published 2004).
Like-named read-outs stand apart in the source and are kept apart here.

Experiments:
nails [1] = details: oral ingestion, aqueous 5% solution, dogs
nails [2] = test system: nails

SMILES: CS(C)(=O)=O [MSM, methylsulphonylmethane]
- growth of the nails (nails [1]): promotes and stimulates the growth of the nails
- strength and brittleness of the nails (nails [2]; aqueous formulation containing 10% MSM and 50% water, applied to the nails with cotton wool, left to act for 15 minutes): strong and less brittle
- brittleness of the nails (nails [2]; nail-varnish removers: standard varnish solvent with 5 to 10% of MSM): less brittle
- brittleness of the nails (nails [2]; solvent-based (ethyl acetate or amyl acetate) varnish containing 5% by weight of MSM): less brittle
